“And” between values parts separate entries of the source, which are not always exact repeats. Identical values can stand only once. Inconclusive results and toxic doses are left out.
Test system: P388 leukemia ip, CD2F1 mice, survival T/C
Assay: NCI In Vivo Anticancer Drug Screen. Data for tumor model P388 Leukemia (intraperitoneal) in CD2F1 (CDF1) mice
Settings: endpoint: median survival time, higher = longer survival
In short: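 Mice carrying the transplanted tumor received test compound or vehicle. Survival was recorded in each group, and the value is the treated-group measurement divided by that of the vehicle-treated control group.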

For `CC1OC(=O)C(C(C)C)NC(=O)C(C(C)C)OC(=O)C(C(C)C)NC(=O)C(C)OC(=O)C(C(C)C)NC(=O)C(C(C)C)OC(=O)C(C(C)C)NC(=O)C(C)OC(=O)C(C(C)C)NC(=O)C(C(C)C)OC(=O)C(C(C)C)NC1=O` (stereo unspecified), the T/C (dose: 0.03 mg/kg/injection, schedule: Q01DX009 (ip), vehicle: other) was 113 % of control, the T/C (dose: 0.1 mg/kg/injection, schedule: Q01DX005 (ip), vehicle: DMSO) was 110 % of control and the T/C (dose: 0.1 mg/kg/injection, schedule: Q01DX005 (ip), vehicle: other) was 108 % of control. For the same compound, the T/C (dose: 0.12 mg/kg/injection, schedule: Q01DX009 (oral), vehicle: other) was 102 % of control, the T/C (dose: 0.2 mg/kg/injection, schedule: Q01DX005 (ip), vehicle: DMSO) was 116 % of control and the T/C (dose: 0.2 mg/kg/injection, schedule: Q01DX005 (ip), vehicle: other) was 110 % of control. The T/C (dose: 0.23 mg/kg/injection, schedule: Q01DX009 (oral), vehicle: other) was 96 % of control, the T/C (dose: 0.25 mg/kg/injection, schedule: Q01DX009 (ip), vehicle: other) was 154 % of control and the T/C (dose: 0.4 mg/kg/injection, schedule: Q01DX005 (ip), vehicle: other) was 120 % of control. For the same compound, the T/C (dose: 0.47 mg/kg/injection, schedule: Q01DX009 (ip), vehicle: Klucel (hydroxypropylcellulose) (HPC)) was 155 % of control, the T/C (dose: 0.47 mg/kg/injection, schedule: Q01DX009 (oral), vehicle: other) was 98 % of control and the T/C (dose: 0.5 mg/kg/injection, schedule: Q01DX009 (ip), vehicle: Klucel (hydroxypropylcellulose) (HPC)) was 116 % of control. For the same compound, the T/C (dose: 0.5 mg/kg/injection, schedule: Q01DX009 (ip), vehicle: other) was 100 % of control, the T/C (dose: 0.62 mg/kg/injection, schedule: Q01DX009 (ip), vehicle: saline) was 111 % of control and 97 % of control and the T/C (dose: 0.94 mg/kg/injection, schedule: Q01DX009 (oral), vehicle: Klucel (hydroxypropylcellulose) (HPC)) was 103 % of control. For the same compound, the T/C (dose: 0.94 mg/kg/injection, schedule: Q01DX009 (oral), vehicle: other) was 93 % of control, the T/C (dose: 1.0 mg/kg/injection, schedule: Q01DX005 (ip), vehicle: Klucel (hydroxypropylcellulose) (HPC)) was 155 % of control and the T/C (dose: 1.25 mg/kg/injection, schedule: Q01DX009 (ip), vehicle: saline) was 94 % of control. For the same compound, the T/C (dose: 1.88 mg/kg/injection, schedule: Q01DX009 (ip), vehicle: Klucel (hydroxypropylcellulose) (HPC)) was 161 % of control, the T/C (dose: 1.88 mg/kg/injection, schedule: Q01DX009 (oral), vehicle: Klucel (hydroxypropylcellulose) (HPC)) was 108 % of control and the T/C (dose: 2.0 mg/kg/injection, schedule: Q01DX005 (ip), vehicle: Klucel (hydroxypropylcellulose) (HPC)) was 165 % of control. For the same compound, the T/C (dose: 2.5 mg/kg/injection, schedule: Q01DX009 (ip), vehicle: saline) was 87 % of control and 94 % of control, the T/C (dose: 3.75 mg/kg/injection, schedule: Q01DX009 (oral), vehicle: Klucel (hydroxypropylcellulose) (HPC)) was 106 % of control and the T/C (dose: 4.0 mg/kg/injection, schedule: Q01DX005 (ip), vehicle: Klucel (hydroxypropylcellulose) (HPC)) was 160 % of control and 162 % of control. For the same compound, the T/C (dose: 5.0 mg/kg/injection, schedule: Q01DX009 (ip), vehicle: Klucel (hydroxypropylcellulose) (HPC)) was 162 % of control, the T/C (dose: 5.0 mg/kg/injection, schedule: Q01DX009 (ip), vehicle: saline with Tween-80) was 106 % of control and the T/C (dose: 5.0 mg/kg/injection, schedule: Q01DX009 (ip), vehicle: saline) was 87 % of control and 93 % of control. For the same compound, the T/C (dose: 7.5 mg/kg/injection, schedule: Q01DX009 (ip), vehicle: Klucel (hydroxypropylcellulose) (HPC)) was 88 % of control, the T/C (dose: 7.5 mg/kg/injection, schedule: Q01DX009 (oral), vehicle: Klucel (hydroxypropylcellulose) (HPC)) was 88 % of control and the T/C (dose: 8.0 mg/kg/injection, schedule: Q01DX005 (ip), vehicle: Klucel (hydroxypropylcellulose) (HPC)) was 159 % of control and 162 % of control. The T/C (dose: 10.0 mg/kg/injection, schedule: Q01DX009 (ip), vehicle: Klucel (hydroxypropylcellulose) (HPC)) was 97 % of control, the T/C (dose: 10.0 mg/kg/injection, schedule: Q04DX003 (ip), vehicle: saline with Tween-80) was 151 % of control and 167 % of control and the T/C (dose: 16.0 mg/kg/injection, schedule: Q01DX005 (ip), vehicle: Klucel (hydroxypropylcellulose) (HPC)) was 163 % of control. For the same compound, the T/C (dose: 20.0 mg/kg/injection, schedule: Q04DX003 (ip), vehicle: saline with Tween-80) was 108 % of control, the T/C (dose: 6.25 micrograms/kg/injection, schedule: Q03HX008 (ip), vehicle: other) was 101 % of control and the T/C (dose: 6.25 micrograms/kg/injection, schedule: Q03HX020 (ip), vehicle: other) was 118 % of control. The T/C (dose: 6.25 micrograms/kg/injection, schedule: Q12HX004 (iv), vehicle: other) was 101 % of control, the T/C (dose: 6.25 micrograms/kg/injection, schedule: Q12HX010 (ip), vehicle: other) was 111 % of control and the T/C (dose: 6.25 micrograms/kg/injection, schedule: Q12HX010 (iv), vehicle: other) was 102 % of control. For the same compound, the T/C (dose: 12.5 micrograms/kg/injection, schedule: Q01DX001 (iv), vehicle: other) was 97 % of control and the T/C (dose: 12.5 micrograms/kg/injection, schedule: Q01DX005 (ip), vehicle: other) was 103 % of control and 107 % of control.

From PubChem BioAssay AID330 (DTP/NCI, 2004)
